These results are taken from ChEMBL document CHEMBL3507680, “University of Dundee, Gates Library screen for HepG2 cell viability”.

The data set in a line: Human HepG2 cell viability assay in 384 well format. Type of data set: toxicity, cell-based. Also noted: dose 125 nL, time 70.5 hour; cytotoxicity at 70.5 h: concentration not given beside the values. The note with it: HepG2 cells, read-out: Inhibition.
`CCc1nc(CN2CC[C@@](O)(CCOC)[C@H](C)C2)cs1`: the cytotoxicity at 70.5 h stood at 17.7%.

As for `Cc1csc2c(N3CCC(NCCCC4CCOC4)CC3)ncnc12` (stereo not drawn), the cytotoxicity at 70.5 h was 30.5%.

In the case of `CN(C)c1ccc(CN2CCN(c3ccc(C#N)cc3)C(=O)C2)cn1`, the cytotoxicity at 70.5 h is -7.99%.

Consider `CNc1ncc(CN(C)Cc2cc(O)c3cc(F)ccc3n2)cn1`, for which the cytotoxicity at 70.5 h was -8.18%.

Regarding `O=C1CN(C(=O)c2cc(-c3ccco3)nc3c(Cl)cccc23)CCN1`, the cytotoxicity at 70.5 h amounted to 9.84%.

Take `CCc1ocnc1C(=O)N1CCOC(CCCC(C)C)C1` (stereo not drawn): the cytotoxicity at 70.5 h is -12.3%.

On to `CCc1nnc(CN(C)Cc2nc(-c3ccccc3Cl)oc2C)o1`, for which the cytotoxicity at 70.5 h was -3.53%.

As to `CN(Cc1nncn1C)c1nccc(N2CCC(O)CC2)n1`, the cytotoxicity at 70.5 h was -4.03%.

Consider `Cc1cc(N2CCCN(C(=O)CSCC3CC3)CC2)ccn1`, for which the cytotoxicity at 70.5 h is -17.7%.

On to `CN(Cc1ccoc1)c1ccc(-c2nccn2C)nn1`, for which the cytotoxicity at 70.5 h turned out to be 26.2%.

Regarding `C/C=C(\C)CN1C[C@H](NC(=O)CCOC)[C@@H](c2ccc(C)o2)C1`, the cytotoxicity at 70.5 h was -18%.

`CC(C)n1cnnc1CN(C)C(=O)CCn1cnc2ccccc2c1=O`: the cytotoxicity at 70.5 h is -17.5%.

`CCC1(C(=O)O)CCCN(CCOCc2ccccc2)C1` (stereo not drawn): the cytotoxicity at 70.5 h is -9.39%.

Regarding `CCN(Cc1noc(CC(C)C)n1)C[C@]1(O)CCCN2CCCC[C@@H]21`, the cytotoxicity at 70.5 h is -11.7%.

As for `CC(NC(=O)CCCc1ccc(Cl)cc1)c1n[nH]c(=O)[nH]1` (stereo not drawn), the cytotoxicity at 70.5 h is -0.585%.

On to `COCc1nc(CN2CC(Cc3ccccc3)CC2=O)no1` (stereo not drawn), for which the cytotoxicity at 70.5 h is -8.93%.

For the compound `CCOC(=O)N1CCN(c2nc(C)ncc2CC)CC1`, the cytotoxicity at 70.5 h worked out at 1.02%.

Take `Cc1cccc(C(=O)N2CCCCC2c2nc3cc(F)ccc3[nH]2)n1` (stereo not drawn): the cytotoxicity at 70.5 h was -11.8%.

Consider `Cc1ncc(CC(=O)N2C[C@@H]3CC[C@H](C2)N(CC2CCC2)C3)c(=O)[nH]1`, for which the cytotoxicity at 70.5 h is -17.8%.

On to `CCO[C@H]1C[C@@H](O)C12CCN(C1CCN(c3ccccc3C)CC1)CC2`, for which the cytotoxicity at 70.5 h was found to be 3.61%.

Regarding `Cc1cccc(CN2CCN(c3ncnc4[nH]ccc34)CC2CCO)n1` (stereo not drawn), the cytotoxicity at 70.5 h is -3.92%.

In the case of `Cc1nn(C)cc1C(=O)N1CCCn2nc(CN3CC[C@H](F)C3)cc2C1`, the cytotoxicity at 70.5 h came out at 6.52%.

Take `CC1(c2ccccc2)CCCN(C(=O)c2ccn3nnnc3c2)C1` (stereo not drawn): the cytotoxicity at 70.5 h is -0.523%.

Consider `N#Cc1c(C2CCOC2)cc(-c2ccc(N3CCCCC3)cc2)nc1N` (stereo not drawn), for which the cytotoxicity at 70.5 h is -7.42%.

For `c1ccc(CN2CCN(C3CCOC4(CCOCC4)C3)CC2)nc1` (stereo not drawn), the cytotoxicity at 70.5 h is -16.9%.

As to `Nc1cc(C(=O)N2CCOC(Cc3cccc(C(F)(F)F)c3)C2)ccn1` (stereo not drawn), the cytotoxicity at 70.5 h is -7.49%.

As for `CCn1cc(CN2CCN(Cc3cc(C)cc(C)c3)C(=O)C2)cc1C#N`, the cytotoxicity at 70.5 h came out at 15.6%.

With `CCOc1cccc(C(=O)N2CCC3(CC2)[C@H](O)C[C@@H]3OC)c1`, the cytotoxicity at 70.5 h came to 0.338%.

Consider `CC(C)N1CCC(CC(=O)NCc2cc(O)ncn2)CC1`, for which the cytotoxicity at 70.5 h is -2.08%.

On to `C[C@@H]1CN(Cc2cn(C)nc2-c2ccccc2F)C[C@H](C)O1`, for which the cytotoxicity at 70.5 h is -11.3%.

As to `Cc1ccccc1C(C(=O)N(C)CCc1cn[nH]c1)N(C)C` (stereo not drawn), the cytotoxicity at 70.5 h was -7.29%.

On to `O=C(C1CCCC1)N1CCN(Cc2ccncc2)[C@@H]2CS(=O)(=O)C[C@@H]21`, for which the cytotoxicity at 70.5 h is -5.83%.

Turning to `CCn1nc(C(C)C)cc1C(=O)NCC1CCCN(c2ccccn2)C1` (stereo not drawn), the cytotoxicity at 70.5 h is -6.28%.

On to `O=C(c1cnn[nH]1)N(CCCO)Cc1cccnc1`, for which the cytotoxicity at 70.5 h is 1.99%.

`Cc1cc(-n2cccn2)ccc1CN1CCC(O)(CN2CCCCC2)C1` (stereo not drawn): the cytotoxicity at 70.5 h turned out to be 1.06%.

For the compound `Cc1noc(C)c1CCCNC(=O)C1CCN(C(=O)C2CCC2)CC1`, the cytotoxicity at 70.5 h was found to be 5.79%.

On to `Cc1nc(C)c(C)c(N2CCC3(CCN(C)C3)C2)n1` (stereo not drawn), for which the cytotoxicity at 70.5 h is -8.86%.

Consider `COCCC(=O)NCc1cccnc1-n1cnc2ccccc21`, for which the cytotoxicity at 70.5 h stood at 6.94%.

Regarding `O=S1(=O)CCC(CNc2cc(-c3ccccc3)nc3ccnn23)C1` (stereo not drawn), the cytotoxicity at 70.5 h was -9.95%.

With `CCSc1ccc(C(=O)N2CCC3(CCC(=O)N(C)C3)CC2)s1`, the cytotoxicity at 70.5 h is -9.54%.

As for `CCc1nc(C)c(CC(=O)N2CCC3(CC2)OCCCC3O)c(=O)[nH]1` (stereo not drawn), the cytotoxicity at 70.5 h was -6.44%.

In the case of `CN1CCN(Cc2ccc(-c3ccc(C(N)=O)cc3)nc2)CC1`, the cytotoxicity at 70.5 h is -7.94%.

Take `COCCN(C)C[C@@H]1CN(C(=O)c2ccc(C)cc2)C[C@@H]1CO`: the cytotoxicity at 70.5 h was -9.29%.

For `COc1nc2c(cc1C(=O)N1CCCC1c1ccccn1)CCC2` (stereo not drawn), the cytotoxicity at 70.5 h was 1.54%.

Turning to `COc1ccc(NC(=O)c2ccc(CN3CC[C@H](O)C3)cc2)c(OC)n1`, the cytotoxicity at 70.5 h was -7.69%.

Consider `COCc1ccc(C(=O)N2CCCN(Cc3ccc(F)cc3)CC2)s1`, for which the cytotoxicity at 70.5 h amounted to 30.1%.

With `CS(=O)(=O)NCC(=O)NCc1cccnc1-n1cnc2ccccc21`, the cytotoxicity at 70.5 h is 17.2%.

As to `COc1ccc(F)c(CN2CCCC(O)(CNCC(C)(C)C)C2=O)c1` (stereo not drawn), the cytotoxicity at 70.5 h turned out to be 13.1%.

`COCCC1CCCCN1C(=O)c1coc(COc2ccccc2F)n1` (stereo not drawn): the cytotoxicity at 70.5 h is -1.11%.

In the case of `Cc1ccc([C@@H]2CN(C(=O)CCc3ccco3)C[C@H]2N(C)C)cc1`, the cytotoxicity at 70.5 h was determined as 0.00383%.

`CC(C)Cc1ncc2c(n1)CN(c1nccc(N(C)C)n1)C2`: the cytotoxicity at 70.5 h was -8.35%.

`Cc1nc(N(C)C)nc(N2CCC3(CC2)CNC(=O)O3)c1C`: the cytotoxicity at 70.5 h was -5.15%.

In the case of `O=C(c1nc(=O)[nH]c2ccccc12)N1CCCC2(CCNC2)C1` (stereo not drawn), the cytotoxicity at 70.5 h stood at 8.43%.

For `C1CCC(c2nnc3sc(C4CCOC4)nn23)C1` (stereo not drawn), the cytotoxicity at 70.5 h was -13.4%.

As for `O=c1cc(C2CCNCC2)nc(Cc2cccc(Cl)c2)[nH]1`, the cytotoxicity at 70.5 h is -5.11%.

As to `Cc1[nH]c2ccc(CNc3cc(C(N)=O)ccn3)cc2c1C`, the cytotoxicity at 70.5 h is -0.16%.

For the compound `CC(=O)NCC(=O)N1CCCC(C(=O)c2ccc(C(C)(C)C)cc2)C1` (stereo not drawn), the cytotoxicity at 70.5 h was -0.592%.

In the case of `CC(C)N1CCCC(C(=O)N2CCN(c3cnn(C)c(=O)c3)CC2)C1` (stereo not drawn), the cytotoxicity at 70.5 h is -7.17%.

Consider `Cc1cc2ccccc2n1CCC(=O)N1CCC2(CC1)CNC(=O)C2`, for which the cytotoxicity at 70.5 h stood at 3.32%.

Regarding `CS(=O)(=O)N1CC[C@]2(O)CCN(CCCC(=O)c3ccccc3)C[C@@H]2C1`, the cytotoxicity at 70.5 h is -2.45%.

Take `Cc1cccc2[nH]c(-c3cn(C4CCNCC4)nn3)nc12`: the cytotoxicity at 70.5 h was -3.11%.

With `O=C(NCCn1cccn1)Nc1cc(C(=O)N2CCOCC2)ccc1Cl`, the cytotoxicity at 70.5 h is -7.57%.

Turning to `Cc1nnsc1CN1C[C@H]2CC[C@@H]1CN(Cc1ccccn1)C2`, the cytotoxicity at 70.5 h is -6.51%.

Turning to `Cc1csc(CN2CC[C@@](O)(C3CCOCC3)[C@H](C)C2)n1`, the cytotoxicity at 70.5 h was -5.11%.

As for `Cc1nccn1-c1ccccc1CNC(=O)c1cn(CCN)nn1`, the cytotoxicity at 70.5 h was determined as 1.29%.

`Cc1ccc([C@@H]2CN(S(=O)(=O)Cc3ccccc3)C[C@H]2N(C)C)cc1`: the cytotoxicity at 70.5 h was 1.88%.

Turning to `N#Cc1ccccc1C(=O)N1C[C@@H](CN2CCCCCC2)[C@@H](CO)C1`, the cytotoxicity at 70.5 h is -7.65%.

On to `Cc1ccc(C(N)=O)c(N2C[C@H]3OC(=O)N(C4CCCC4)[C@H]3C2)n1`, for which the cytotoxicity at 70.5 h was -11.9%.
